From ChEMBL document CHEMBL5352381, “Design and development of a novel series of oral bivalent BET inhibitors with potent anticancer activities” (Eur J Med Chem, 2022) come the findings set out here.

The term Cmax denotes the maximum level reached in the sampled fluid or tissue. In general, Tmax refers to the time at which the peak concentration occurs. The AUC(0-inf) is total exposure, with the tail of the curve extrapolated. What is called half-life is the time needed for the level to fall by half in the phase considered. For orientation: MRT means the average time that molecules of a dose stay in the body. A word on the AUC(0-t): it is the area under the concentration-time curve up to a stated or last time point. Low values mean less exposure, high ones more exposure. The term IC50 denotes the concentration at which inhibition is half-maximal. Read a high IC50 as weaker potency in that assay.

Data set [1] can be described thus: Cmax in CD-1 mouse at 10 mg/kg, po. Particulars: in vivo. The arrangement: dose 10 mg/kg, route po. The data set is classed as ADME, organism-based.
A short description of data set [2]: Toxicity in BALB/c mouse xenografted with human MM1.S assessed body weight loss treated at 3 mg/kg, po qd for 10 days. The data set is classed as organism-based. Particulars: in vivo, 240 h, time 10 day.
Data set [3] can be described thus: Tmax in CD-1 mouse at 10 mg/kg, po. The data set is classed as ADME, organism-based. The conditions noted are these: in vivo.
The nature of data set [4]: Observed AUC infinity in CD-1 mouse at 10 mg/kg, po. The data set is classed as ADME, organism-based. Set-up: dose 10 mg/kg, route po. The conditions noted are these: in vivo.
A short description of data set [5]: Half life in CD-1 mouse at 10 mg/kg, po. The data set is classed as ADME, organism-based. Particulars: in vivo.
The test system of data set [6] is MM1.S. Briefly: Antitumor activity against human MM1.S cells xenografted in BALB/c nude mouse assessed growth inhibition treated at 3 mg/kg, po qd for 10 days followed by dose adjustment to 1.5 mg/kg from day 11 to 21 due to body weight loss relative to control. The data set is classed as functional. The conditions noted are these: dose 1.5-3 mg/kg, time 21 day, at 1.5 to 3 mg/kg. A general note: A xenograft is tissue or cells of one species grown in another, often human tumour cells in immunodeficient mice.

Data set [7] is described as follows: Observed MRT infinity in CD-1 mouse at 10 mg/kg, po. The data set is classed as ADME, organism-based. Particulars: in vivo.
Data set [8] can be described thus: AUClast in CD-1 mouse at 10 mg/kg, po. Particulars: in vivo. The arrangement: dose 10 mg/kg, route po. The data set is classed as ADME, organism-based.
Data set [9] relates to Ty-82. Nature of the data set: Induction of apoptosis in human Ty-82 cells assessed as reduction of c-Myc mRNA level at 0.1 to 10 nM for 24 hrs by […]. The data set is classed as functional, cell-based. Particulars: dose 0.1-10 nM. In general terms: In western blotting, separated proteins are transferred to a membrane and probed.
The test system of data set [10] is Ty-82. Briefly: Induction of apoptosis in human Ty-82 cells assessed as reduction of IDO1 mRNA level at 0.1 to 10 nM for 24 hrs by […]. The data set is classed as functional, cell-based. The conditions noted are these: dose 0.1-10 nM.
The test system of data set [11] is Ty-82. Briefly: Antitumor activity against human Ty-82 cells xenografted in BALB/c nude mouse assessed tumor growth inhibition treated at 0.5 mg/kg, po qd for 21 days relative to control. The conditions noted are these: TY82, 504 h, time 21 day, read-out: TGI. The data set is classed as functional.
Data set [12] can be described thus: Toxicity in BALB/c mouse xenografted with human Ty-82 assessed as body weight loss treated at 0.25 to 0.5 mg/kg, po qd for 21 days. The data set is classed as organism-based. The conditions noted are these: in vivo, 504 h, dose 0.25-0.5 mg/kg, time 21 day.
Data set [13] deals with CAPAN-1. Nature of the data set: Induction of apoptosis in human CAPAN-1 cells assessed as increase in caspase 9 at 0.1 to 10 nM for 48 hrs […]. Particulars: dose 0.1-10 nM. The data set is classed as functional, cell-based.
For data set [14], the system named is Ty-82. Nature of the data set: Induction of apoptosis in human Ty-82 cells for 48 hrs by annexin V-FITC based flow cytometric analysis. The data set is classed as functional, cell-based. Particulars: dose 0.1-10 nM. (Flow cytometry measures light scatter and fluorescence of single cells or particles in a stream.)
In data set [15] the test system is Ty-82. Briefly: Induction of apoptosis in human Ty-82 cells assessed as increase in caspase 7 at 0.1 to 10 nM for 48 hrs […]. Particulars: dose 0.1-10 nM. The data set is classed as functional, cell-based.
Data set [16] deals with CAPAN-1. Nature of the data set: Induction of apoptosis in human CAPAN-1 cells assessed as increase in caspase 7 at 0.1 to 10 nM for 48 hrs […]. The data set is classed as functional, cell-based. The conditions noted are these: dose 0.1-10 nM.
Data set [17] relates to CAPAN-1. Nature of the data set: Induction of apoptosis in human CAPAN-1 cells assessed as increased cleaved PARP at 0.1 to 10 nM for 48 hrs […]. The data set is classed as functional, cell-based. The conditions noted are these: dose 0.1-10 nM.
Data set [18] has as its system CAPAN-1. Nature of the data set: Induction of apoptosis in human CAPAN-1 cells assessed as increase in caspase 3 at 0.1 to 10 nM for 48 hrs […]. The data set is classed as functional, cell-based. Particulars: dose 0.1-10 nM.
The next data set concerns MV4-11. Nature of the data set: Antitumor activity against human MV4-11 cells xenografted in BALB/c mouse assessed as growth inhibition at 0.6 mg/kg, po qd 21 days relative to control. The data set is classed as functional. The conditions noted are these: MV4-11, 504 h, time 21 day, read-out: GI.
For data set [19], the system named is Ty-82. Nature of the data set: Induction of apoptosis in human Ty-82 cells assessed as increase in caspase 3 at 0.1 to 10 nM for 48 hrs […]. The data set is classed as functional, cell-based. Particulars: dose 0.1-10 nM.
For data set [20], the system named is Ty-82. Nature of the data set: Induction of apoptosis in human Ty-82 cells assessed as increase in cleaved PARP at 0.1 to 10 nM for 48 hrs […]. The data set is classed as functional, cell-based. Particulars: dose 0.1-10 nM.
Data set [21] relates to Ty-82. Briefly: Induction of apoptosis in human Ty-82 cells assessed as increase in caspase 9 at 0.1 to 10 nM for 48 hrs […]. The data set is classed as functional, cell-based. Particulars: dose 0.1-10 nM.
In data set [22] the test system is CAPAN-1. Nature of the data set: Induction of apoptosis in human CAPAN-1 cells for 48 hrs by annexin V-FITC based flow cytometric analysis. The data set is classed as functional, cell-based. The conditions noted are these: dose 0.1-10 nM.
Data set [23] in a line: Toxicity in BALB/c mouse xenografted with human Ty-82 assessed as death treated at 0.25 to 0.5 mg/kg, po qd for 21 days. The data set is classed as organism-based. Particulars: in vivo, 504 h, dose 0.25-0.5 mg/kg, time 21 day.
Data set [24] concerns MM1.S. Nature of the data set: Antitumor activity against human MM1.S cells xenografted in BALB/c nude mouse assessed growth inhibition treated at 1.5 mg/kg, po qd for 10 days adjusted to qod from day 11 to 21 due to body weight loss relative to control. The data set is classed as functional. The conditions noted are these: 504 h, time 21 day, read-out: GI.
The test system of data set [25] is MM1.S. Briefly: Antitumor activity against human MM1.S cells xenografted in BALB/c nude mouse assessed growth inhibition treated at 0.5 mg/kg, po qd for 21 days relative to control. The data set is classed as functional. The conditions noted are these: 504 h, time 21 day, read-out: GI.
The nature of data set [26]: Toxicity in BALB/c mouse xenografted with human MM1.S assessed body weight loss treated at 1.5 mg/kg, po qd for 10 days. The data set is classed as organism-based. The conditions noted are these: in vivo, 240 h, time 10 day.
Data set [27] can be described thus: Metabolic stability in mouse liver microsomes assessed as half life. The data set is classed as ADME, Microsome.
A short description of data set [28]: Metabolic stability in dog liver microsomes assessed as clearance. The data set is classed as ADME, Canis lupus familiaris, Microsome. Particulars: read-out: CLH.
The nature of data set [29]: Metabolic stability in mouse liver microsomes assessed as clearance. Particulars: read-out: CLH. The data set is classed as ADME, Microsome.
Data set [30] can be described thus: Toxicity in BALB/c mouse xenografted with human MV4-11 cells assessed as body weight loss at 0.6 mg/kg, po qd 21 days. The data set is classed as organism-based. The conditions noted are these: in vivo, 504 h, time 21 day.
The nature of data set [31]: Metabolic stability in dog liver microsomes assessed as half life. The data set is classed as ADME, Canis lupus familiaris, Microsome.
The test system of data set [32] is Ty-82. Briefly: Antiproliferative activity against human Ty-82 cells incubated for 72 hrs by sulforhodamine B based cell counting kit-8 assay. The data set is classed as functional. Particulars: TY82, 72 h.
The nature of data set [33]: Metabolic stability in human liver microsomes assessed as clearance. The data set is classed as ADME, Microsome. The conditions noted are these: read-out: CLH.
Data set [34] can be described thus: Metabolic stability in human liver microsomes assessed as half life. The data set is classed as ADME, Microsome.
For data set [35], the system named is MM1.S. Nature of the data set: Antiproliferative activity against human MM1.S cells incubated for 72 hrs by sulforhodamine B based cell counting kit-8 assay. The data set is classed as functional.

Molecules are shown by their SMILES. Calls of active or inactive are those of the source.

`Cc1ccc(-n2nc(C(=O)N3CCN(C(=O)c4nc(-c5ccc6c(c5)N(C5CCCC5)[C@H](C)C(=O)N6C)n(-c5ccc(C)cc5)n4)[C@H](C)C3)nc2-c2ccc3c(c2)N(C2CCCC2)[C@H](C)C(=O)N3C)cc1` gave a Cmax in data set [1] of 823 ng/mL. In addition, the Activity entry in data set [2] is listed as “Toxic”. Moreover, the Tmax in data set [3] stood at 2 h. Besides, in data set [4], the AUC(0-inf) is 4170 ng·h/mL. The half-life in [5] was 2.82 h. For the same compound, in the data set on MM1.S [6], the “growth inhibition (GI)” value was 78.6%. The MRT in data set [7] was found to be 4.85 h. In addition, in data set [8], the AUC(0-t) was 4150 ng·h/mL.

For `CCS(=O)(=O)Nc1ccc(Oc2ccc(F)cc2F)c(-c2cn(C)c(=O)c3[nH]ccc23)c1` [MIVEBRESIB], the result in the data set on Ty-82 [9], in the data set with Ty-82 [10], in the data set with CAPAN-1 [13], in the data set on Ty-82 [15], in the data set on CAPAN-1 [16] and in the data set with CAPAN-1 [17] was Active. For the same compound, the result in the data set on CAPAN-1 [18], in the data set with Ty-82 [19], in the data set on Ty-82 [20] and in the data set on Ty-82 [21] was Active. Besides, the inhibition in vivo at 0.5 mg/kg with Ty-82 [11] was determined as 67.6%. The Activity entry in [12] is “Toxic”; with Ty-82 [14] it was “Dose-Dependent Effect”; in the data set on CAPAN-1 [22], “Dose-Dependent Effect”; in data set [23], “Non-Toxic”. Further, the inhibition in vivo at 0.6 mg/kg with MV4-11 was found to be 66.9%.

Consider `Cc1ccc(-n2nc(C(=O)N3C[C@H](C)N(C(=O)c4nc(-c5ccc6c(c5)N(C5CCCC5)[C@H](C)C(=O)N6C)n(-c5ccc(C)cc5)n4)C[C@H]3C)nc2-c2ccc3c(c2)N(C2CCCC2)[C@H](C)C(=O)N3C)cc1`, for which the inhibition in vivo at 1.5 mg/kg in the data set on MM1.S [24] stood at 91.5%. Moreover, the concentration in data set [1] peaked (Cmax) at 1340 ng/mL. Also, in [3], the Tmax was 2.33 h. In addition, the inhibition in vivo at 0.5 mg/kg in the data set with MM1.S [25] worked out at 66.5%. The AUC(0-inf) in data set [4] is 4620 ng·h/mL. In addition, in data set [5], the half-life is 0.19 h. Further, in data set [26], the Activity entry is reported as “Toxic”. In data set [7], this compound had an MRT of 3.82 h. In [8], the AUC(0-t) was 4570 ng·h/mL.

On to `C[C@@H]1CN(C(=O)c2nc(-c3ccc4c(c3)N(C3CCC3)[C@H](C)C(=O)N4C)n(-c3cccc(Cl)c3)n2)[C@@H](C)CN1C(=O)c1nc(-c2ccc3c(c2)N(C2CCC2)[C@H](C)C(=O)N3C)n(-c2cccc(Cl)c2)n1`, for which the result in the data set on Ty-82 [9], in the data set on Ty-82 [10], in the data set with CAPAN-1 [13], with Ty-82 [15], in the data set on CAPAN-1 [16] and with CAPAN-1 [17] was Active. Besides, the outcome with CAPAN-1 [18], with Ty-82 [19], in the data set with Ty-82 [20] and in the data set with Ty-82 [21] was Active. The inhibition in vivo at 0.5 mg/kg in the data set with Ty-82 [11] was found to be 73.5%. For the same compound, the Activity result is “Toxic” in [12]; “Dose-Dependent Effect” in the data set on Ty-82 [14]; “Toxic” in data set [30]; “Dose-Dependent Effect” in the data set with CAPAN-1 [22]; “Non-Toxic” in data set [23]. The figures for the half-life in [27], in [31] and in data set [34] were 3.72 h, 14.6 h and 3.86 h, respectively. The microsomal CLint in data set [28] was 1.6 µL/min/mg; in data set [29], 6.2 µL/min/mg; in [33], 6 µL/min/mg. Also, the IC50 in the data set on Ty-82 [32] turned out to be 0.05 nM; with MM1.S [35], 0.07 nM. In the data set on MV4-11, the inhibition in vivo at 0.6 mg/kg was 88.9%.
